Assay results published in patent US12617804B2, “Conjugation-fused bipolar redox-active molecule, preparation method, and application thereof” (Hangzhou Normal University, priority 2021, dated 2026).

Key:
[1] = Cyclic voltammetry (CV), TBA-TFSI supporting electrolyte in acetonitrile; assay type: physicochemical
Experimental: Redox kinetics of QPT-OMe obtained in Embodiment 1 is tested by cyclic voltammetry (CV). Tetrabutylammonium bis(trifluoromethylsulfonyl)imide (TBA-TF SI) is used as a supporting electrolyte and acetonitrile as a solvent. The results are shown in FIG. 3, where two pairs of symmetrical cathodic and anodic peaks can be clearly observed. The half-wave potentials of −2.04 and 0.72 V (with respect to Ag^+/Ag) correspond to the reduction and oxidation reactions of QPT-OMe, respectively. The open-circuit voltage is about 2.76 V when using QPT-OMe as the active material in the RFB, which is one of the highest value for bipolar molecules so far.
Furthermore, the QPT-OMe/QPT-OMe and QPT-P-OMe/QPT-OMe redox pairs show high rate constants of 1.4×10^−2 and 1.6×10-2 cm s^−1, respectively, by calculation. This is probably due to the relatively low recombination energy required for single electron transfer to occur from a large off-domain π-conjugated system. The high rate constants also imply negligible voltage loss when electrochemical reactions occur at the electrode surface.
The redox kinetics of QPT-TEG obtained in Embodiment 4 is tested by cyclic voltammetry (CV). Tetrabutylammonium bis(trifluoromethylsulfonyl)imide (TBA-TF SI) is used as a supporting electrolyte and acetonitrile as a solvent.

[2] = Miscibility of QPT-TEG with polar organic solvents; assay type: physicochemical; details: acetonitrile, dimethyl sulfoxide, dichloromethane and other solvents, in any ratio
Excerpt: The bipolar redox-active molecule with the above structure (QPT-TEG) is a […] fluid that is miscible with most polar organic solvents. QPT-TEG is able to increase the overall solubility of the molecule by introducing long ether chains without changing the redox potential of the designed redox subject molecule.

[3] = with respect to Ag+/Ag, TBA-TFSI, acetonitrile

SMILES	electrochemical window [1]	rate constant, QPT-OMe/QPT-OMe redox pair ([1]; first-named redox pair, by calculation)	open-circuit voltage as active material in the RFB ([1]; from the two half-wave potentials)	half-wave potential, oxidation reaction [1, 3]	half-wave potential, reduction reaction [1, 3]	miscibility with solvents [2]	redox behavior in CV ([1]; compared with QPT-OMe, FIG. 5)
COc1ccc2c(c1)c(=O)c1cccc3c1n2-c1ccccc1S3 [QPT-OMe]	~3 V	0.014 cm/s	about 2.76 V	0.72 V	−2.04 V		
COCCOCCOCCOc1ccc2c(c1)c(=O)c1cccc3c1n2-c1ccccc1S3 [QPT-TEG]						miscible	basically the same as that of QPT-OMe
